How the values were obtained:
Insulin receptor = Insulin receptor (Rattus norvegicus, UniProt P15127); assay type: cell membranes, Wistar, Liver, Membrane; further: in other assays of this panel Not Active means under 50% inhibition at 10 µM
Interstitial collagenase = target: T1, Interstitial collagenase (Homo sapiens, UniProt P03956); assay: biochemical; assay type: tissue-based, Rheumatoid synovial fibroblasts;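 further: MMP-1 enzyme inhibition assay using a peptide substrate; in other assays of this panel Not Active means under 50% inhibition at 10 µM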
T1 sequence (P03956 whole entry): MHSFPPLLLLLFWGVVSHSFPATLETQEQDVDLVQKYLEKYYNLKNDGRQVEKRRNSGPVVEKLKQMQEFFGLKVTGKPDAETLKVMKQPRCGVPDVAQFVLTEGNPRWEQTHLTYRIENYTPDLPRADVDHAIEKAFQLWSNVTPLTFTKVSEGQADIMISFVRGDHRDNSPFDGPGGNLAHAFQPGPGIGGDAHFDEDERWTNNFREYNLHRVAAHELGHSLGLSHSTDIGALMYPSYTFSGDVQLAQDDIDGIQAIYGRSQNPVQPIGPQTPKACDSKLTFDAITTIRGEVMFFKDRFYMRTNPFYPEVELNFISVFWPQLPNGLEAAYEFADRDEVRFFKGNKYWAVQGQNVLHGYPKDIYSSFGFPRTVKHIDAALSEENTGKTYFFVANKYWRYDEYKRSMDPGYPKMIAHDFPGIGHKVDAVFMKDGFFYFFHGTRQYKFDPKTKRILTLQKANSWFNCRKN

[1] = target: T2, Angiotensin-converting enzyme (Oryctolagus cuniculus, UniProt P12822); assay type: tissue-based, Lung;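 further: enzymatic inhibition of angiotensin-converting enzyme measured with FAPGG as the substrate; in other assays of this panel Not Active means under 50% inhibition at 10 µM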
T2 sequence (P12822 whole entry): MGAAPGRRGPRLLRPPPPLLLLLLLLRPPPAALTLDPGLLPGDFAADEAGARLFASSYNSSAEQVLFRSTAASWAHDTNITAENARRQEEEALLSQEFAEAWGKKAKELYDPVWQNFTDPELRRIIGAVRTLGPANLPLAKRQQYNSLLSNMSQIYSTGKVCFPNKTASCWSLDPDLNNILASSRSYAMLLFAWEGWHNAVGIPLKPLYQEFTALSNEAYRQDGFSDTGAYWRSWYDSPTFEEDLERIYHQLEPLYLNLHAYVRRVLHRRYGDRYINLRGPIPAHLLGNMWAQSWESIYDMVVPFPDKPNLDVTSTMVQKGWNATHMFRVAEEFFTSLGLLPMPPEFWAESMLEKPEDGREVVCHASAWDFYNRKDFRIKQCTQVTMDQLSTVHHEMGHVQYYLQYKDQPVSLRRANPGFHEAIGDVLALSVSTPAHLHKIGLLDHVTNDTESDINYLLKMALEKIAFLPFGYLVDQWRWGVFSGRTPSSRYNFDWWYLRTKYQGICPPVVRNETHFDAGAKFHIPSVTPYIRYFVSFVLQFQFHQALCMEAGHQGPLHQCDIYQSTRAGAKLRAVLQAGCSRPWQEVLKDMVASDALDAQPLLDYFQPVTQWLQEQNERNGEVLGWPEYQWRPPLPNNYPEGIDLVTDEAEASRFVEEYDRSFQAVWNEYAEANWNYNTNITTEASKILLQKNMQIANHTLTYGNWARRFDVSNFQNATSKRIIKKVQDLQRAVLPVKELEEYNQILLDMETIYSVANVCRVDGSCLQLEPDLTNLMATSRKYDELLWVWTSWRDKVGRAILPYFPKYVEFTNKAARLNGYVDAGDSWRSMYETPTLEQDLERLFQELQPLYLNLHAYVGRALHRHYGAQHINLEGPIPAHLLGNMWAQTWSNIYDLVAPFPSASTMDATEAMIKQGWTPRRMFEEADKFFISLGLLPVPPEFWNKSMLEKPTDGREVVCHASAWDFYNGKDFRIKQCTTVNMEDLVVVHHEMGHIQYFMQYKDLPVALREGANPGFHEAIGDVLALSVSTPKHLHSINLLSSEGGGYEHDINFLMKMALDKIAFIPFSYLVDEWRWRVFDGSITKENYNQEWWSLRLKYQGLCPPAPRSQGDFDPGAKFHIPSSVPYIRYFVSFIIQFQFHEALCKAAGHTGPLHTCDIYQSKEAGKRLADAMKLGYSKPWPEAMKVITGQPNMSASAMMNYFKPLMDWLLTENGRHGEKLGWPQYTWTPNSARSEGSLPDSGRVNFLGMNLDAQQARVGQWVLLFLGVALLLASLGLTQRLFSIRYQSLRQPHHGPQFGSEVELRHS

[2] = target: T3, 3-hydroxy-3-methylglutaryl-coenzyme A reductase (Homo sapiens, UniProt P04035); design: species or system Escherichia coli;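 further: enzyme inhibition assay of HMG-CoA reductase using radiolabeled [14C]HMG-CoA as substrate; in other assays of this panel Not Active means under 50% inhibition at 10 µM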
T3 sequence (P04035 whole entry): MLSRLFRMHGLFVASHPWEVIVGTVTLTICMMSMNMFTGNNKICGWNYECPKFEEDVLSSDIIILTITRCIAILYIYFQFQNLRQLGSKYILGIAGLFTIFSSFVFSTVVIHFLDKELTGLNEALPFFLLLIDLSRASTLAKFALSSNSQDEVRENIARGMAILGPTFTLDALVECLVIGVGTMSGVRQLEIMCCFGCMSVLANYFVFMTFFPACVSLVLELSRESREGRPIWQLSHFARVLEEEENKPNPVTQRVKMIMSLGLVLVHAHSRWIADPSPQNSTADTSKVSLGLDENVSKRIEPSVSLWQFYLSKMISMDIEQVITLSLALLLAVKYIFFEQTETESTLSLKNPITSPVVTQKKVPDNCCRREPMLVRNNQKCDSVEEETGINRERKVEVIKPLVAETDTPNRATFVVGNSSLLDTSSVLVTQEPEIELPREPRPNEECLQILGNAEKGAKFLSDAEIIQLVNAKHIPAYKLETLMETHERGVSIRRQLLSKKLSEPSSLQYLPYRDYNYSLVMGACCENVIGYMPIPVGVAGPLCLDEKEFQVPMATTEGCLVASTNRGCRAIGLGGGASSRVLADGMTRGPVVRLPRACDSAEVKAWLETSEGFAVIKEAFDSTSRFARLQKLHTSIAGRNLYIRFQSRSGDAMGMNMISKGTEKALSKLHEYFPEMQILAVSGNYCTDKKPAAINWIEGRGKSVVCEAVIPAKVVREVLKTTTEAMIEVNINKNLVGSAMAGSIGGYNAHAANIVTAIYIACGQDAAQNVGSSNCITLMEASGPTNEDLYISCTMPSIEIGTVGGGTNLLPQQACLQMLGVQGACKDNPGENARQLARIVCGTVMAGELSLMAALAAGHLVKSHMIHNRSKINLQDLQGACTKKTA

D(1A) dopamine receptor = D(1A) dopamine receptor (Homo sapiens, UniProt P21728); assay: DRUGMATRIX: Dopamine D1 radioligand binding (ligand: [3H] SCH-23390); assay type: cell membranes, CHO, Membrane; details: Not Active = under 50% inhibition at 10 µM
[3] = target: C-C chemokine receptor type 5 (Homo sapiens, UniProt P51681); assay type: cell membranes, Membrane; details: hek293; further: in other assays of this panel Not Active means under 50% inhibition at 10 µM
[4] = DRUGMATRIX: Leukotriene, BLT (LTB4) radioligand binding (ligand: [3H]LTB4); assay type: cell membranes, Membrane; details: u-937, Not Active = under 50% inhibition at 10 µM
Cannabinoid receptor 1 = Cannabinoid receptor 1 (Homo sapiens, UniProt P21554); assay type: cell membranes, Membrane; details: chem-1; further: in other assays of this panel Not Active means under 50% inhibition at 10 µM
Sequence of Cannabinoid receptor 1 (P21554 whole entry): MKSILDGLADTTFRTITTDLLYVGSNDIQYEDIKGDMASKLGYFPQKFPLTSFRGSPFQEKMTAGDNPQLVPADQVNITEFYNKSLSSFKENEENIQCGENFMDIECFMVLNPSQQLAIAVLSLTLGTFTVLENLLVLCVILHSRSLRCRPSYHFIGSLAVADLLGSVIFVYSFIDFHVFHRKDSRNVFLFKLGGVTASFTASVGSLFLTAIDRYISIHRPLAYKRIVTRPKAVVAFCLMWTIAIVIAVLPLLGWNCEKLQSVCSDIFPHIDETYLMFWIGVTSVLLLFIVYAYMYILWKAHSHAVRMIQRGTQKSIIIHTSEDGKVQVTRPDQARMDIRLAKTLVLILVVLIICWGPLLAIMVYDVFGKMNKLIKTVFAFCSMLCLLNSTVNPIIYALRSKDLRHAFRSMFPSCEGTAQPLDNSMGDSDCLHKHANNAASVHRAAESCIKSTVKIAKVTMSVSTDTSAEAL

Sequence of D(1A) dopamine receptor (P21728 whole entry): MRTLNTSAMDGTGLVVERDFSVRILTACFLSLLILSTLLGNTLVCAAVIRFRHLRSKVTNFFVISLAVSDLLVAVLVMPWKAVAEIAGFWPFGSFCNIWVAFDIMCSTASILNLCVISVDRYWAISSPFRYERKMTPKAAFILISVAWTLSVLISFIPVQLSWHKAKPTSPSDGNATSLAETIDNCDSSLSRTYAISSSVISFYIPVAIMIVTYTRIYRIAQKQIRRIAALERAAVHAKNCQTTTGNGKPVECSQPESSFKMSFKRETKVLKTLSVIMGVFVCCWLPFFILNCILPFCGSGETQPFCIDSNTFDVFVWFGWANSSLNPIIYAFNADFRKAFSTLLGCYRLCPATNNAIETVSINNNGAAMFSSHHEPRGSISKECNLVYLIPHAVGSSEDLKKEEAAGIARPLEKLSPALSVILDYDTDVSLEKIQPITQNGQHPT
Sequence of C-C chemokine receptor type 5 (P51681 whole entry): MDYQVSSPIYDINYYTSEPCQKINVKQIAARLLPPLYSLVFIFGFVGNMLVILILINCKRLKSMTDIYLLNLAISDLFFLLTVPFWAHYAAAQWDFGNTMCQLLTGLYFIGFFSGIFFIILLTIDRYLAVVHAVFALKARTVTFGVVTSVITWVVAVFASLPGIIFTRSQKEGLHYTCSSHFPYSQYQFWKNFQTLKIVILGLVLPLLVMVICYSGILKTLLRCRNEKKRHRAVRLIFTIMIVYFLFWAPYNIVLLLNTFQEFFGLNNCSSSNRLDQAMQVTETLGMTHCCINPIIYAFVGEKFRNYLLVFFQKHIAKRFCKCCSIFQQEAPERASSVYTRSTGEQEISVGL
Sequence of Insulin receptor (P15127 27-759 limits assumed): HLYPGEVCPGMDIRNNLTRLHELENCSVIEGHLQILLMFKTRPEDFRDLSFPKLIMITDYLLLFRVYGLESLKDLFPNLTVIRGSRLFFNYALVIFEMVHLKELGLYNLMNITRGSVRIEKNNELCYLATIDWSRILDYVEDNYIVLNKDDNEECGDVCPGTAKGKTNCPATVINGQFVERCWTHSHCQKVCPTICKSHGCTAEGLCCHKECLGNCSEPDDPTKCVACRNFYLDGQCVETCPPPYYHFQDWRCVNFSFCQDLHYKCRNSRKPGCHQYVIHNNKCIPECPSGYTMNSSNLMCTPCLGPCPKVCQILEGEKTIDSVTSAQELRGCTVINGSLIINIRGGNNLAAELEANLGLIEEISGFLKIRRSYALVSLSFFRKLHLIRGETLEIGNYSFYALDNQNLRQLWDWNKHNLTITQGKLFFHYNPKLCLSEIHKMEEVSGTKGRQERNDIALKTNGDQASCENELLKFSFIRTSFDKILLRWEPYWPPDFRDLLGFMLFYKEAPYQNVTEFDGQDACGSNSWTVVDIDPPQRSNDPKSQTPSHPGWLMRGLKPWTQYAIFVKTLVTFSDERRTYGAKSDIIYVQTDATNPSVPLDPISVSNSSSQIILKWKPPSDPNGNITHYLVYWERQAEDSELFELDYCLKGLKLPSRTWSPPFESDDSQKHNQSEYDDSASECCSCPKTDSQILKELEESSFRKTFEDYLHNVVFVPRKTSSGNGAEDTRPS
Sequence of Insulin receptor (P15127 764-1383 limits assumed): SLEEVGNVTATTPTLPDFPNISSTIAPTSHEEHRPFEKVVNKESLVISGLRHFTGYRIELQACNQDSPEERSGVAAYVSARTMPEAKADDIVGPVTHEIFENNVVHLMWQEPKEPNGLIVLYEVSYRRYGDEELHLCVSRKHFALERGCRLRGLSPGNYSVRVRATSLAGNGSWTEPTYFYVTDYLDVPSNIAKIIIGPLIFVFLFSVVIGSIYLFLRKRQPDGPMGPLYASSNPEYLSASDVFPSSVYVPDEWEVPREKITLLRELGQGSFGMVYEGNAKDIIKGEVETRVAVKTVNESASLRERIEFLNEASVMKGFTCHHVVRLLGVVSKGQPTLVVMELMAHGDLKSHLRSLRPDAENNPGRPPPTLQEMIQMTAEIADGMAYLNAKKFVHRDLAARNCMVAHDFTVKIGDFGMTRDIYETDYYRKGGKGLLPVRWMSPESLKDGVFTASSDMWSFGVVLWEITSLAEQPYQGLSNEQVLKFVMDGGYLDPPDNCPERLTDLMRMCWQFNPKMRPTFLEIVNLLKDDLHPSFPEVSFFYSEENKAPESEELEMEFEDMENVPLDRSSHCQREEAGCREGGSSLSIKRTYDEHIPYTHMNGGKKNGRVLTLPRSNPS

SMILES | IC50 (Insulin receptor) | IC50 (Interstitial collagenase) | IC50 [1] | IC50 [2] | IC50 (D(1A) dopamine receptor; cho) | IC50 [3] | IC50 [4] | Ki [4] | IC50 (Cannabinoid receptor 1) | IC50 (D(1A) dopamine receptor; read-out: IC50) | Ki (D(1A) dopamine receptor; read-out: Ki) | IC50 ([4]; read-out: IC50) | Ki ([4]; read-out: Ki)
CC(C)(C)NC(=O)[C@@H]1C[C@@H]2CCCC[C@@H]2CN1C[C@@H](O)[C@H](Cc1ccccc1)NC(=O)[C@H](CC(N)=O)NC(=O)c1ccc2ccccc2n1 | Not Active | Not Active | Not Active | Not Active | Not Active | Not Active | Not Active | Not Active | Not Active | – | – | – | –
CC(=O)[C@@]1(O)CC[C@H]2[C@@H]3C[C@H](C)C4=CC(=O)CC[C@]4(C)[C@H]3CC[C@@]21C | Not Active | Not Active | Not Active | Not Active | Not Active | Not Active | Not Active | Not Active | Not Active | – | – | – | –
N[C@@H](Cc1ccc(N(CCCl)CCCl)cc1)C(=O)O | Not Active | Not Active | Not Active | Not Active | Not Active | Not Active | Not Active | Not Active | Not Active | – | – | – | –
CCCCc1oc2ccccc2c1C(=O)c1cc(I)c(OCCN(CC)CC)c(I)c1 [AMIODARONE] | Not Active | Not Active | Not Active | Not Active | – | Not Active | – | – | Not Active | – | – | – | –
OCCN(CCO)c1nc(N2CCCCC2)c2nc(N(CCO)CCO)nc(N3CCCCC3)c2n1 [DIPYRIDAMOLE] | Not Active | Not Active | Not Active | Not Active | Not Active | Not Active | Not Active | Not Active | Not Active | – | – | – | –
Cc1oncc1C(=O)Nc1ccc(C(F)(F)F)cc1 [LEFLUNOMIDE] | Not Active | Not Active | Not Active | Not Active | Not Active | Not Active | Not Active | Not Active | Not Active | – | – | – | –
c1ccc([C@H]2CN3CCSC3=N2)cc1 [LEVAMISOLE] | Not Active | Not Active | Not Active | Not Active | Not Active | Not Active | Not Active | Not Active | Not Active | – | – | – | –
N[C@@H](Cc1ccc(O)c(O)c1)C(=O)O [LEVODOPA] | Not Active | Not Active | Not Active | Not Active | Not Active | Not Active | Not Active | Not Active | Not Active | – | – | – | –
N[C@@H](Cc1cc(I)c(Oc2ccc(O)c(I)c2)c(I)c1)C(=O)O [LIOTHYRONINE] | Not Active | Not Active | Not Active | Not Active | Not Active | Not Active | – | – | Not Active | – | – | – | –
O=NN(CCCl)C(=O)NC1CCCCC1 [LOMUSTINE] | Not Active | Not Active | Not Active | Not Active | Not Active | Not Active | Not Active | Not Active | Not Active | – | – | – | –
CCOC(=O)N1CCC(=C2c3ccc(Cl)cc3CCc3cccnc32)CC1 [LORATADINE] | Not Active | Not Active | Not Active | Not Active | Not Active | Not Active | Not Active | Not Active | Not Active | – | – | – | –
Cn1ccnc1S [METHIMAZOLE] | Not Active | Not Active | Not Active | Not Active | Not Active | Not Active | Not Active | Not Active | Not Active | – | – | – | –
CC[C@@H](CO)NC(=O)[C@@H]1C=C2c3cccc4[nH]cc(c34)C[C@H]2N(C)C1 [METHYLERGONOVINE] | Not Active | Not Active | Not Active | Not Active | – | Not Active | Not Active | Not Active | Not Active | 1.08 µM | 0.539 µM | – | –
COc1nc(C)nc(Cl)c1NC1=NCCN1 [MOXONIDINE] | Not Active | Not Active | Not Active | Not Active | Not Active | Not Active | Not Active | Not Active | Not Active | – | – | – | –
CN1CCN(CCCN2c3ccccc3Sc3ccc(Cl)cc32)CC1 [PROCHLORPERAZINE] | Not Active | Not Active | Not Active | Not Active | – | Not Active | – | – | Not Active | – | – | – | –
Cc1nc2n(c(=O)c1CCN1CCC(c3noc4cc(F)ccc34)CC1)CCCC2 [RISPERIDONE] | Not Active | Not Active | Not Active | Not Active | – | Not Active | – | – | Not Active | – | – | – | –
CC/C(=C(\c1ccccc1)c1ccc(OCCN(C)C)cc1)c1ccccc1 [TAMOXIFEN] | Not Active | Not Active | Not Active | Not Active | – | Not Active | – | – | Not Active | – | – | – | –
CC(C)N1CCN(c2ccc(OCC3COC(Cn4cncn4)(c4ccc(Cl)cc4Cl)O3)cc2)CC1 (stereo not drawn) [TERCONAZOLE] | Not Active | Not Active | Not Active | Not Active | – | Not Active | – | – | Not Active | – | – | 24.9 µM | 6.32 µM
